Results: patent US20260096978A1, “A METHOD FOR PREVENTING, […]/OR TREATING PTGS2-INDUCED SKIN DISORDERS AND RELATED DYSFUNCTIONS” (Symrise AG, priority 2022, published 2026)

How the values were obtained:
PTGS2 [1] = assay: PTGS2 protein level (IHC staining) in ex vivo human skin biopsies exposed to solar simulated radiation; assay type: cell-based; settings: SSR 250 J/cm^2; for PTGS2 protein level, mean as % of non-irradiated vehicle / PTGS2 protein level, Δ versus non-irradiated vehicle / PTGS2 protein level, mean score: day 3; for PTGS2 protein level, mean as % of non-irradiated vehicle: irradiated vehicle 198%; for PTGS2 protein level, Δ versus non-irradiated vehicle: irradiated vehicle Δ 98%; for PTGS2 protein level, mean score: non-irradiated vehicle 1.0302, irradiated vehicle 2.0439
Procedure: (§1) In order to evaluate the efficacy of L-Carnosine on protecting skin from Solar Simulated Radiation (SSR), gene expression and protein level of PTGS2 were analysed. -Ex vivo human skin biopsies were topically treated with L-Carnosine at different concentrations (0.2% and 2.2%), and daily exposed to 250 J/cm^2 of SSR. Gene expression and protein modulation were assessed respectively at day 2 and day3. The radiation dose was selected following the literature, and represent the approximative amount of solar light acquirable under natural conditions by sunbathing.
(§2) Human skin samples were obtained from plastic surgery of healthy patients (aged between 25 and 60), and not intensive sun exposed. The informed consent was obtained from patients and retained by clinic. For the studies, twelve 8 mm diameter punch biopsies were used for each treatment. The skin samples were cultured in modified Williams' E medium at air-liquid interface and, maintained in incubator at the following conditions: 37° C., 5% CO2 and 95% humidity.
(§3) For these studies L-Carnosine was dissolved in vehicle (DMSO/PBS 1:25) at the following concentration 0.2% and 2.2%. Treatments were applied topically and renewed daily as follows: skin biopsies were cleaned with sterile cotton buds and 4 μl of treatment were applied on the biopsy's epidermis. All treated and the control samples were covered with 6 mm diameter delivery membranes.
(§4) Skin irradiation was performed daily, with Suntest XLS+(Ametek Inc., USA) equipped with the provided IR filter and a DAY LIGHT filter, to obtain an emission spectrum between 300 and 800 nm. Every day the skin samples were irradiated with a SSR dose of 250 J/cm^2. Control samples were sham-irradiated under the same conditions.
Skin samples were collected (day 3), fixed in formalin and paraffin embedded. Skin sections were immuno-stained with PTGS2 antibody (Thermo Fisher Scientific Inc., USA). The images of the skin sections were acquired, and the analysis was performed through Image-J application (NIH, USA).

PTGS2 [2] = assay: PTGS2 gene expression (real-time RT-PCR) in ex vivo human skin biopsies exposed to solar simulated radiation; assay type: cell-based; settings: for PTGS2 gene expression, fold-change versus non-irradiated vehicle: SSR 250 J/cm^2 daily, day 2; for PTGS2 gene expression, % of irradiated vehicle: irradiated vehicle = 100; for PTGS2 gene expression, Δ versus irradiated vehicle: irradiated vehicle Δ = 0; for Effect on SSR-induced PTGS2 gene expression, in words: ex vivo human skin, SSR 250 J/cm^2
Procedure: as §1, §2, §3, §4
Human skin biopsies were collected in cryo-vial containing a commercial RNA stabilization solution (RNAlater, Merck KGaA, Germany) and stored at −80° C. Total RNA was extracted using a commercial kit (Rneasy mini-kit, Qiagen GmbH, Germany) according to the manufacturer's instructions. The expression level of selected genes was determined using Real-time RT-PCR method with custom designed gene array (TaqMan® Array 96-Well Fast Plates, Thermo Fisher Scientific Inc., USA).
Gene expression changes were determined in three donors.

SMILES: NCCC(=O)N[C@@H](Cc1cnc[nH]1)C(=O)O [L-Carnosine]
- PTGS2 protein level, mean as % of non-irradiated vehicle (PTGS2 [1]; L-Carnosine 0.2%): 193%
- PTGS2 protein level, Δ versus non-irradiated vehicle (PTGS2 [1]; L-Carnosine 0.2%): 93%
- PTGS2 protein level, mean score (PTGS2 [1]; L-Carnosine 0.2%): 1.9913
- PTGS2 protein level, mean as % of non-irradiated vehicle (PTGS2 [1]; L-Carnosine 2.2%): 146%
- PTGS2 protein level, Δ versus non-irradiated vehicle (PTGS2 [1]; L-Carnosine 2.2%): 46%
- PTGS2 protein level, mean score (PTGS2 [1]; L-Carnosine 2.2%): 1.5091
- Effect on SSR-induced PTGS2 protein, in words (PTGS2 [1]; ex vivo human skin): efficiently reduce the SSR-induced induction of the PTGS2 gene and the PTGS2-protein
- PTGS2 gene expression, fold-change versus non-irradiated vehicle (PTGS2 [2]; Donor #1, L-Carnosine 0.2% topical, irradiated vehicle 5.3): 4.2 fold-change
- PTGS2 gene expression, % of irradiated vehicle (PTGS2 [2]; Donor #1, L-Carnosine 0.2%): 79%
- PTGS2 gene expression, Δ versus irradiated vehicle (PTGS2 [2]; Donor #1, L-Carnosine 0.2%): −21
- PTGS2 gene expression, fold-change versus non-irradiated vehicle (PTGS2 [2]; Donor #1, L-Carnosine 2.2% topical, irradiated vehicle 5.3): 4.0 fold-change
- PTGS2 gene expression, % of irradiated vehicle (PTGS2 [2]; Donor #1, L-Carnosine 2.2%): 76%
- PTGS2 gene expression, Δ versus irradiated vehicle (PTGS2 [2]; Donor #1, L-Carnosine 2.2%): −24
- PTGS2 gene expression, fold-change versus non-irradiated vehicle (PTGS2 [2]; Donor #2, L-Carnosine 0.2% topical, irradiated vehicle 13.9): 11.3 fold-change
- PTGS2 gene expression, % of irradiated vehicle (PTGS2 [2]; Donor #2, L-Carnosine 0.2%): 81%
- PTGS2 gene expression, Δ versus irradiated vehicle (PTGS2 [2]; Donor #2, L-Carnosine 0.2%): −19
- PTGS2 gene expression, fold-change versus non-irradiated vehicle (PTGS2 [2]; Donor #2, L-Carnosine 2.2% topical, irradiated vehicle 13.9): 7.7 fold-change
- PTGS2 gene expression, % of irradiated vehicle (PTGS2 [2]; Donor #2, L-Carnosine 2.2%): 55%
- PTGS2 gene expression, Δ versus irradiated vehicle (PTGS2 [2]; Donor #2, L-Carnosine 2.2%): −45
- PTGS2 gene expression, fold-change versus non-irradiated vehicle (PTGS2 [2]; Donor #3, L-Carnosine 0.2% topical, irradiated vehicle 2.0): 1.4 fold-change
- PTGS2 gene expression, % of irradiated vehicle (PTGS2 [2]; Donor #3, L-Carnosine 0.2%): 70%
- PTGS2 gene expression, Δ versus irradiated vehicle (PTGS2 [2]; Donor #3, L-Carnosine 0.2%): −30
- PTGS2 gene expression, fold-change versus non-irradiated vehicle (PTGS2 [2]; Donor #3, L-Carnosine 2.2% topical, irradiated vehicle 2.0): 1.4 fold-change
- PTGS2 gene expression, % of irradiated vehicle (PTGS2 [2]; Donor #3, L-Carnosine 2.2%): 72%
- PTGS2 gene expression, Δ versus irradiated vehicle (PTGS2 [2]; Donor #3, L-Carnosine 2.2%): −28
- Effect on SSR-induced PTGS2 gene expression, in words (PTGS2 [2]): efficiently reduce the SSR-induced induction of the PTGS2 gene
- Effect on SSR-induced PTGS2 gene expression, in words (PTGS2 [2]; listed as L-carnosine): reduces the expression of PTGS2
